We go through two compounds from ChEMBL document CHEMBL2424579, “Quinazolin-4-one derivatives as selective histone deacetylase-6 inhibitors for the treatment of Alzheimer's disease” (J Med Chem, 2013).

Calls of active or inactive are those of the source. The rule behind the calls is not given here.

Data set [1] has as its target Histone deacetylase 8 (Homo sapiens) (UniProt Q9BY41). Briefly: Inhibition of human recombinant HDAC8 expressed in baculovirus/sf9 cells using RHKAcKAc as substrate at 1 uM.
The target in data set [2] is Polyamine deacetylase HDAC10 (Homo sapiens) (UniProt Q969S8). Briefly: Inhibition of human recombinant HDAC10 expressed in baculovirus/sf9 cells using RHKKAc as substrate at 1 uM.
Sequence of Polyamine deacetylase HDAC10 (Homo sapiens) (Q969S8 whole entry): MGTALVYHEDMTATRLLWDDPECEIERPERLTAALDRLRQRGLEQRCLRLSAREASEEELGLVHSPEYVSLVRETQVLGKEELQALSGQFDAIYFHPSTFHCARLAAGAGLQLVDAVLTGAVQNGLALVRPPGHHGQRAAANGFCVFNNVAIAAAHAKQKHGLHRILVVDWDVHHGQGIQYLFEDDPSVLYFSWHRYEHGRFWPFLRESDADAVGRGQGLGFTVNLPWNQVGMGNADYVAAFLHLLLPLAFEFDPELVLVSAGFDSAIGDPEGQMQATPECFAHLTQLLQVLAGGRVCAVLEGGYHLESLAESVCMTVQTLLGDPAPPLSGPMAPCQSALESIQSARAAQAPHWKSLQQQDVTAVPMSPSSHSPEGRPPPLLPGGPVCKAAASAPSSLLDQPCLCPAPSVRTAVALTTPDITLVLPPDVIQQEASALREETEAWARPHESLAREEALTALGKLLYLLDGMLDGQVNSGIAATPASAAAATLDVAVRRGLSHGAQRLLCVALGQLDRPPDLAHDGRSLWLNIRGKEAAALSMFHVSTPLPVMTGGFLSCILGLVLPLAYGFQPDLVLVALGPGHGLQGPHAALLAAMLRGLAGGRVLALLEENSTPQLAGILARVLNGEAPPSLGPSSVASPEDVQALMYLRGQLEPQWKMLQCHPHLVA
Data set [3] has as its target T1, Histone deacetylase 2 (Homo sapiens, UniProt Q92769). Briefly: Inhibition of human recombinant HDAC2 expressed in baculovirus/sf9 cells using RHKKAc as substrate at 1 uM.
The target of data set [4] is Protein deacetylase HDAC6 (Homo sapiens) (UniProt Q9UBN7). Briefly: Inhibition of human recombinant HDAC6 expressed in baculovirus/sf9 cells using RHKKAc as substrate at 1 uM.
Data set [5] deals with T2, Histone deacetylase 1 (Homo sapiens, UniProt Q13547). Briefly: Inhibition of human recombinant HDAC1 expressed in baculovirus/sf9 cells using RHKKAc as substrate at 1 uM.
T2 sequence (Q13547 whole entry): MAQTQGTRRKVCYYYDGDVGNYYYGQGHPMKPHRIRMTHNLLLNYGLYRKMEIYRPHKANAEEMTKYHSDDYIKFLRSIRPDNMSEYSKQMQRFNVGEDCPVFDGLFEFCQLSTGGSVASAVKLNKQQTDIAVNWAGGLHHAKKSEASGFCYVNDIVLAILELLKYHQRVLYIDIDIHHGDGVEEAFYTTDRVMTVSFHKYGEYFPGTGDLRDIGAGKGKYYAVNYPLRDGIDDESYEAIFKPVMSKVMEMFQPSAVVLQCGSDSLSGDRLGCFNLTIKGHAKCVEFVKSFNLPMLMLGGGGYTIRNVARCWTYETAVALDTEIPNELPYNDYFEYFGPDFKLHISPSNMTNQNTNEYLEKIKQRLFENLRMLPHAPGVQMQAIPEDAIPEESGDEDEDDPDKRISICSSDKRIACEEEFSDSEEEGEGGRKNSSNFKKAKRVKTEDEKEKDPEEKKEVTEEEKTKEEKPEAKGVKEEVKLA
For data set [6], the target named is Histone deacetylase 11 (Homo sapiens) (UniProt Q96DB2). Briefly: Inhibition of human recombinant HDAC11 expressed in baculovirus/sf9 cells using RHKKAc as substrate at 1 uM.
Data set [7] deals with Amyloid-beta precursor protein (Homo sapiens, UniProt P05067). Briefly: Inhibition of amyloid beta aggregation (unknown origin) after 4 hrs by thioflavin S assay in absence of Zn2+.
Data set [8] deals with SH-SY5Y. Briefly: Induction of neurite outgrowth in human SH-SY5Y cells at 10 uM after 5 days. The data set is classed as functional, cell-based.
The subject of data set [9] is PC-12. Briefly: Inhibition of HDAC6 in rat PC12 cells assessed as acetylation of histone H3 at 10 uM after 48 hrs by Western blotting analysis. In kind it is cell-based. (In general: In western blotting, separated proteins are transferred to a membrane and probed.)
Data set [10] relates to SH-SY5Y. Briefly: Increase of synaptic activity in human SH-SY5Y cells after 5 days by fluorescence assay. The data set is classed as functional, cell-based. The note with it: 120 h.
The target in the next data set is T3, Histone deacetylase 11 (Homo sapiens, UniProt Q96DB2).
T3 sequence (Q96DB2 whole entry): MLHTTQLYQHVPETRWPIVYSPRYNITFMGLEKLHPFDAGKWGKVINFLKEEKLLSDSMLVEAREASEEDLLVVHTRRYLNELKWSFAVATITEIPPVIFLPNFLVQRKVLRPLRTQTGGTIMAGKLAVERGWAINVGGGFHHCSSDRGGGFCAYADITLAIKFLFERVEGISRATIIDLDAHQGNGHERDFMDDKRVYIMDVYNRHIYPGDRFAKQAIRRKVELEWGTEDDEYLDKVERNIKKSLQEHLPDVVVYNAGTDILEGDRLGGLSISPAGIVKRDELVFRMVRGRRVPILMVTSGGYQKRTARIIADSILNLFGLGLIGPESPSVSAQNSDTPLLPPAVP
Briefly: Inhibition of human recombinant HDAC11 expressed in baculovirus/sf9 cells using RHKKAc as substrate.

For another data set, the target named is Cytochrome P450 2D6 (Homo sapiens, UniProt P10635). Briefly: Inhibition of CYP2D6 (unknown origin) using 3-cyano-7-ethoxycoumarin as substrate. The data set is classed as ADME.
Sequence of Cytochrome P450 2D6 (P10635 whole entry): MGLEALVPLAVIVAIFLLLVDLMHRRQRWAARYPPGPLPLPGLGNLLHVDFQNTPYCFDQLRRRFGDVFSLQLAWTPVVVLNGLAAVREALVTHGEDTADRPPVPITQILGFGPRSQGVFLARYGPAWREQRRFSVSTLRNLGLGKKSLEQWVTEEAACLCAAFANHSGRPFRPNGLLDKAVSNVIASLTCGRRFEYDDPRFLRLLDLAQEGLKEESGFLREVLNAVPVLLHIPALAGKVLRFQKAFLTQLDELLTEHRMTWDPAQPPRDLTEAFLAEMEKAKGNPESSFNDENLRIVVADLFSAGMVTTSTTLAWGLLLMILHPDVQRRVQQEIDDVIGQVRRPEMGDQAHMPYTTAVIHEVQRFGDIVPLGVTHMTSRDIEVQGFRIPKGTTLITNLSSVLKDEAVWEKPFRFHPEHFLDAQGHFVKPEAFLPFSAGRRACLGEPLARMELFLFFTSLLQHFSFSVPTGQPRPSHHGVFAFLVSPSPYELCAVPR
Data set [11] relates to PC-12. Briefly: Cytotoxicity against rat PC12 cells at 25 uM. The data set is classed as cell-based. To be noted: pc-12, 25 µM.
For the next data set, the target named is Cytochrome P450 1A2 (Homo sapiens, UniProt P05177). Briefly: Inhibition of CYP1A2 (unknown origin) using 3-cyano-7-ethoxycoumarin as substrate. In kind it is ADME.
Data set [12] deals with PC-12. Briefly: Induction iof GAP-43 protein expression in rat PC12 cells after 48 hrs by Western blotting analysis. In kind it is functional, cell-based.
The subject of data set [13] is Mus musculus. Briefly: Antialzheimer activity in wild type learning-impaired Balb/c mouse model with hippocampal lesions at 10 mg/kg, ip administered for 30 days by rotarod test relative to vehicle-treated control. To be noted: Hippocampus, TDE = time-dependent effect.
Data set [14] deals with Poly [ADP-ribose] polymerase 1 (Homo sapiens) (UniProt P09874). Briefly: Inhibition of PARP1 (unknown origin) up to 25 uM.
Sequence of Poly [ADP-ribose] polymerase 1 (Homo sapiens) (P09874 whole entry): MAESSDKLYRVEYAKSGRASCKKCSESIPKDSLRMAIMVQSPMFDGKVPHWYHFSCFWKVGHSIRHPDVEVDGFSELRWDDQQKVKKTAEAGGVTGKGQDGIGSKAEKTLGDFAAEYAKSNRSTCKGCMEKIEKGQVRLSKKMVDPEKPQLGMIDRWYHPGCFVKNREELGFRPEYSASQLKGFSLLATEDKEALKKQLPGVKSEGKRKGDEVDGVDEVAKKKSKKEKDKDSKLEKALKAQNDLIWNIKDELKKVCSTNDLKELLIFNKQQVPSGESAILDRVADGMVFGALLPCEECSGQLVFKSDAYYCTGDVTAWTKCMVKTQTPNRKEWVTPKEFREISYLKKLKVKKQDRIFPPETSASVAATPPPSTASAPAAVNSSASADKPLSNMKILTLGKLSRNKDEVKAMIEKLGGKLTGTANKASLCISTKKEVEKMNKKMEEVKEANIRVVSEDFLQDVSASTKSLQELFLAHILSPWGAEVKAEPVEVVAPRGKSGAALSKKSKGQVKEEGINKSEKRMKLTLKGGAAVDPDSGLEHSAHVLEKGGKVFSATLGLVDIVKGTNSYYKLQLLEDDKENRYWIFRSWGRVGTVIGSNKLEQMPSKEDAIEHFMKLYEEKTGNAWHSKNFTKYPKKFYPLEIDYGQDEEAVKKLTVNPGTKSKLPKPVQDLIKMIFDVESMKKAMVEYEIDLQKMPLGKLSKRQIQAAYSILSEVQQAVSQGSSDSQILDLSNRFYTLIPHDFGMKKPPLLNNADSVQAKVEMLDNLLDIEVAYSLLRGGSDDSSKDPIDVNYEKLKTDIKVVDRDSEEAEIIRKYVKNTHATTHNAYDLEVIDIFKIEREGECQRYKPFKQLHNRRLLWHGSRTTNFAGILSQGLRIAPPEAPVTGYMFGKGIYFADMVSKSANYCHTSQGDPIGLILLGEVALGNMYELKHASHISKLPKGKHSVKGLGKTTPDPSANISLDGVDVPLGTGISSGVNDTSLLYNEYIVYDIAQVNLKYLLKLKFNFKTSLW
Data set [15] relates to Mus musculus. Briefly: Antialzheimer activity in wild type learning-impaired Balb/c mouse model with hippocampal lesions assessed as increase in acetylated alpha-tubulin level in hippocampus region at 10 mg/kg, ip administered for 30 days by rotarod test. Background: Falling from the rotarod earlier than controls is read as motor impairment.
Data set [16] can be described thus: Cytotoxicity against human SH-SY5Y cells at 25 uM. The data set is classed as cell-based.
Data set [17] relates to SH-SY5Y. Briefly: Induction of neurite outgrowth in human SH-SY5Y cells after 5 days. In kind it is functional, cell-based. To be noted: 120 h.
For data set [18], the target named is T2, Histone deacetylase 1. Briefly: Inhibition of human recombinant HDAC1 expressed in baculovirus/sf9 cells using RHKKAc as substrate.
Data set [19] has as its system PC-12. Briefly: Induction iof GAP-43 protein expression in rat PC12 cells at 0.1 uM after 48 hrs by Western blotting analysis. The data set is classed as functional, cell-based.
Data set [20] has as its system PC-12. Briefly: Increase of synaptic activity in rat PC12 cells after 5 days by fluorescence assay. In kind it is functional, cell-based. The note with it: PC-12, 120 h.
The next data set concerns the target Cytochrome P450 2C9 (Homo sapiens, UniProt P11712). Briefly: Inhibition of CYP2C9 (unknown origin) using Vivid OOMR as substrate. The data set is classed as ADME.
Data set [21] has as its system PC-12. Briefly: Induction of neurite outgrowth in rat PC12 cells at 10 uM after 5 days. In kind it is functional, cell-based.
The target in data set [22] is T1, Histone deacetylase 2. Briefly: Inhibition of human recombinant HDAC2 expressed in baculovirus/sf9 cells using RHKKAc as substrate.
The target of a further data set is Cytochrome P450 2C19 (Homo sapiens, UniProt P33261). Briefly: Inhibition of CYP2C19 (unknown origin) using 3-cyano-7-ethoxycoumarin as substrate. The data set is classed as ADME.
Sequence of Cytochrome P450 2C19 (P33261 whole entry): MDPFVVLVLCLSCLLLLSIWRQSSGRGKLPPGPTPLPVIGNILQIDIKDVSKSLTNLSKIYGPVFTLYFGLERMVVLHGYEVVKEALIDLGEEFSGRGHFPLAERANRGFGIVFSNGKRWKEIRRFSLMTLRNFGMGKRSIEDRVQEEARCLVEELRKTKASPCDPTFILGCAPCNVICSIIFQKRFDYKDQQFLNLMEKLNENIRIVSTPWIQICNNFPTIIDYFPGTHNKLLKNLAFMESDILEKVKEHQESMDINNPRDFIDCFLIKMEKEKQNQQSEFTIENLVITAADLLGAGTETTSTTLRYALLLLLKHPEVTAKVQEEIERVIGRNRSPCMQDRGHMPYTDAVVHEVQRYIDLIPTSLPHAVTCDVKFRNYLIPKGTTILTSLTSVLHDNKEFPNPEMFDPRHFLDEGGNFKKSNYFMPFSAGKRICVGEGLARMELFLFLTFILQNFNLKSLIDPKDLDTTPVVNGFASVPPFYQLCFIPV
The subject of data set [23] is PC-12. Briefly: Inhibition of HDAC6 in rat PC12 cells assessed as induction of alpha-tubulin acetylation at 10 uM after 48 hrs by Western blotting analysis. The data set is classed as cell-based.
Another data set addresses Cytochrome P450 3A4 (Homo sapiens, UniProt P08684). Briefly: Inhibition of CYP3A4 (unknown origin) using Vivid BOMR as substrate. The data set is classed as ADME.
The subject of data set [24] is PC-12. Briefly: Induction of neurite outgrowth in rat PC12 cells after 5 days. The data set is classed as functional, cell-based. To be noted: PC-12, 120 h.
For a further data set, the system named is Vero. Briefly: Cytotoxicity against african green monkey Vero cells at 25 uM. In kind it is cell-based. The note with it: chlorocebus sabaeus.
Another data set has as its target T4, Histone deacetylase 8 (Homo sapiens, UniProt Q9BY41).
T4 sequence (Q9BY41 whole entry): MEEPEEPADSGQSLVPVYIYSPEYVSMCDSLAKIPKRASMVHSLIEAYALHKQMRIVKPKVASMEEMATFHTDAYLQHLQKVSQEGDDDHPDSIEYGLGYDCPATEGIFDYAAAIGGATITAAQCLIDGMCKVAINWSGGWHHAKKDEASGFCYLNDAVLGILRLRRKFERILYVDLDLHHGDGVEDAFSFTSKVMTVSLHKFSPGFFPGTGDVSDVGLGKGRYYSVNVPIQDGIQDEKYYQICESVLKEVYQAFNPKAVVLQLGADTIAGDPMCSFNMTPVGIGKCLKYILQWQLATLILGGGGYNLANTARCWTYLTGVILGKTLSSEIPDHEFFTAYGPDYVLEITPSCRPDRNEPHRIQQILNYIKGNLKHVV
Briefly: Inhibition of human recombinant HDAC8 expressed in baculovirus/sf9 cells using RHKAcKAc as substrate.

The target of data set [25] is T5, Protein deacetylase HDAC6 (Homo sapiens, UniProt Q9UBN7).
T5 sequence (Q9UBN7 whole entry): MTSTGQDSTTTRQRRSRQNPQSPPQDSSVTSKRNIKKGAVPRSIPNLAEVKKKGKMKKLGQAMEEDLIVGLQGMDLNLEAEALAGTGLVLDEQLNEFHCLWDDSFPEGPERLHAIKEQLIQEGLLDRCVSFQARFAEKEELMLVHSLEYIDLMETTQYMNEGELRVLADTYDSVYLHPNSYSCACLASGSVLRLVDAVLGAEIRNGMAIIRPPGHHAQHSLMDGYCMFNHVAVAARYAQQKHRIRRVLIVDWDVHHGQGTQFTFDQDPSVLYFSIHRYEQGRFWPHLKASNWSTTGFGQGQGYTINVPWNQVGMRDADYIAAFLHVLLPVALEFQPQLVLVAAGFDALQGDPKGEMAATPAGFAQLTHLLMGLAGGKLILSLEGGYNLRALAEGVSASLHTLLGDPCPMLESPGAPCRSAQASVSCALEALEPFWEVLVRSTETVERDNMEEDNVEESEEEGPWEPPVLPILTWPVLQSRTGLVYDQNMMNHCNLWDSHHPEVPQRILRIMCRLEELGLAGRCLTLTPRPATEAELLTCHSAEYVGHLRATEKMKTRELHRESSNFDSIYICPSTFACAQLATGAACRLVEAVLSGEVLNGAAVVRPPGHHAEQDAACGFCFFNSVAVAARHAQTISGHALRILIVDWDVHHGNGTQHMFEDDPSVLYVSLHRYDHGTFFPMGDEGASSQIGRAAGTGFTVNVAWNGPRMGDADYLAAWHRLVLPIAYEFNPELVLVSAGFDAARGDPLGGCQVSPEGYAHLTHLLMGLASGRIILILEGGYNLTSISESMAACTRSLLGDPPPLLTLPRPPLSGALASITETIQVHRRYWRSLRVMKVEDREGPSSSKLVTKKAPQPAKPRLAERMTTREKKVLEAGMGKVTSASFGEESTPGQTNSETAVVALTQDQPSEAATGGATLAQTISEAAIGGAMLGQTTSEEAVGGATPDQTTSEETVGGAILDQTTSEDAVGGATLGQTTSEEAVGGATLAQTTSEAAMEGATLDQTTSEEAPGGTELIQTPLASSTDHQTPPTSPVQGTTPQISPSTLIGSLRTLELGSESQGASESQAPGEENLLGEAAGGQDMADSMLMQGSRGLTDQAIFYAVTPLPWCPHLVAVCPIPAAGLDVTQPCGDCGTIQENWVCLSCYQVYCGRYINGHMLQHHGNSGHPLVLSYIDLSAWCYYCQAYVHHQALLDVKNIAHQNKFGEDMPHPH
Briefly: Inhibition of human recombinant HDAC6 expressed in baculovirus/sf9 cells using RHKKAc as substrate.

T1 sequence (Q92769 whole entry): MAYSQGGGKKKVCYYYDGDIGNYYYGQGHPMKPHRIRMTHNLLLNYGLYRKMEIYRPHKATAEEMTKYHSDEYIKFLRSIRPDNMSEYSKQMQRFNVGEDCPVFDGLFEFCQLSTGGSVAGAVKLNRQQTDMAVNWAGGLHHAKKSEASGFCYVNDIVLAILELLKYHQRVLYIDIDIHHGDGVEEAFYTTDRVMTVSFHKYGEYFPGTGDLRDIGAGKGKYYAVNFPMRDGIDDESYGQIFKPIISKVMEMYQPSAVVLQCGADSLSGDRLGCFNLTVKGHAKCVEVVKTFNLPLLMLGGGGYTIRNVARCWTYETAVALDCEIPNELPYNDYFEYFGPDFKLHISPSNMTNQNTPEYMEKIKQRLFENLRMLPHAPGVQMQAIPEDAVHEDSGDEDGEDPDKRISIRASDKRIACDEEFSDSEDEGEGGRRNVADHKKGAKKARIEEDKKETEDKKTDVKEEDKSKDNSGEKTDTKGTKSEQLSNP
Sequence of Cytochrome P450 2C9 (P11712 whole entry): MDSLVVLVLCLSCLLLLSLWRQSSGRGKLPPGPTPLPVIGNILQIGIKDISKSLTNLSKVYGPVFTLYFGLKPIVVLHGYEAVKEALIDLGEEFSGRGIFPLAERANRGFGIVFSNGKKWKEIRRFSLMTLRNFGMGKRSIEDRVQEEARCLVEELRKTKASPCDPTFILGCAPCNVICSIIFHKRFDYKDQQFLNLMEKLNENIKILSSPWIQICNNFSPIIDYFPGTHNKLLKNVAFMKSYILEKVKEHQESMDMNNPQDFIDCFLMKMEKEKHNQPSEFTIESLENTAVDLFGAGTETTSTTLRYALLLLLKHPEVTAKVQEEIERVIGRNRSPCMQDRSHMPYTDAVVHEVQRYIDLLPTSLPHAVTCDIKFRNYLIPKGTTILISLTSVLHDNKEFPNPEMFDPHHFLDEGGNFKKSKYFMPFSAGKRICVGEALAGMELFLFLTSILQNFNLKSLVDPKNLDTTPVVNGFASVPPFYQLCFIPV
Sequence of Cytochrome P450 3A4 (P08684 whole entry): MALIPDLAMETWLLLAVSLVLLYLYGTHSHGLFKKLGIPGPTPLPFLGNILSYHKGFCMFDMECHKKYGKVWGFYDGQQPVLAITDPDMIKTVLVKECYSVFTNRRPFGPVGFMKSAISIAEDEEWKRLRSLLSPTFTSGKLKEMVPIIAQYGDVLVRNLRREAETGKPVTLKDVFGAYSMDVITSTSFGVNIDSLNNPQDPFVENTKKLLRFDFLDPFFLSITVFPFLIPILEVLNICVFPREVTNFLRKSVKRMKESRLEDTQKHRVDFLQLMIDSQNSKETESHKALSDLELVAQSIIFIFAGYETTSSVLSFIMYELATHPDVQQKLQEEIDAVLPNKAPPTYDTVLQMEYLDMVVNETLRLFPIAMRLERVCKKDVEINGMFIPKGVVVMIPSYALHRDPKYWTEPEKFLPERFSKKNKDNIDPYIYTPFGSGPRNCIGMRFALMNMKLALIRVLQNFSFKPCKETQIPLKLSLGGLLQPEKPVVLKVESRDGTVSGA

The term inhibition denotes the change of the read-out against control, counted positive when it falls. Regarding `CCc1nc2c(-c3ccc(C(=O)NO)cc3)cccc2c(=O)n1CCc1ccccc1`, the inhibition in [1] and in [4] was 50% each time. The inhibition result (in data set [2]; at Histone deacetylase 2 [3]; at Histone deacetylase 1 [5]; in data set [6]) was “inactive” throughout.

For orientation: IC50 means the midpoint of a concentration-inhibition curve. What is called EC50 is the concentration that produces a half-maximal response. As to `Cc1nc2cc(/C=C/C(=O)NO)ccc2c(=O)n1CCc1ccccc1`, the IC50 in data set [7] was over 50 µM; at Histone deacetylase 11 it was 4.08 µM; against Cytochrome P450 2D6, over 10 µM; on Cytochrome P450 1A2 it was over 10 µM; on Histone deacetylase 1 [18], 1.88 µM; on Cytochrome P450 2C9, 9.1 µM. The IC50 on Histone deacetylase 2 [22] is 6.45 µM; on Cytochrome P450 2C19, over 10 µM; at Cytochrome P450 3A4, 6.5 µM; on Histone deacetylase 8, 1.75 µM; in data set [25], 0.029 µM. In addition, the outcome in the data set with SH-SY5Y [8], in the data set on Mus musculus [15], in the data set with PC-12 [19] and in the data set with PC-12 [21] was Active. The inhibition entry with PC-12 [9] and with PC-12 [23] was “Active” throughout. The EC50 in the data set on SH-SY5Y [10] was 6.8 µM; in the data set with SH-SY5Y [17], 9.2 µM; in the data set with PC-12 [20], 6.5 µM; in the data set with PC-12 [24], 7.3 µM. Besides, the Activity entry is “Non-toxic” with PC-12 [11]; “Dose-dependent effect” with PC-12 [12]; “tde” in the data set with Mus musculus [13]; “Non-toxic” in data set [16]; “Non-toxic” in the data set on Vero. The inhibition result in data set [14] is “inactive”.
